In paper PMC5133702, “Liver-specific ATP-citrate lyase inhibition by bempedoic acid decreases LDL-C and attenuates atherosclerosis” (Nature Communications, 2016) one finds Ki data, which are given here for one compound.

One may read the Ki as a dissociation constant, usually derived from enzyme kinetics or from competition with a known ligand.

The target in the experiment is T1, ATP-citrate lyase (ACL) (Homo sapiens, UniProt P53396).
T1 construct: gene ACLY; recombinant human ACL
T1 sequence (P53396 1-1101): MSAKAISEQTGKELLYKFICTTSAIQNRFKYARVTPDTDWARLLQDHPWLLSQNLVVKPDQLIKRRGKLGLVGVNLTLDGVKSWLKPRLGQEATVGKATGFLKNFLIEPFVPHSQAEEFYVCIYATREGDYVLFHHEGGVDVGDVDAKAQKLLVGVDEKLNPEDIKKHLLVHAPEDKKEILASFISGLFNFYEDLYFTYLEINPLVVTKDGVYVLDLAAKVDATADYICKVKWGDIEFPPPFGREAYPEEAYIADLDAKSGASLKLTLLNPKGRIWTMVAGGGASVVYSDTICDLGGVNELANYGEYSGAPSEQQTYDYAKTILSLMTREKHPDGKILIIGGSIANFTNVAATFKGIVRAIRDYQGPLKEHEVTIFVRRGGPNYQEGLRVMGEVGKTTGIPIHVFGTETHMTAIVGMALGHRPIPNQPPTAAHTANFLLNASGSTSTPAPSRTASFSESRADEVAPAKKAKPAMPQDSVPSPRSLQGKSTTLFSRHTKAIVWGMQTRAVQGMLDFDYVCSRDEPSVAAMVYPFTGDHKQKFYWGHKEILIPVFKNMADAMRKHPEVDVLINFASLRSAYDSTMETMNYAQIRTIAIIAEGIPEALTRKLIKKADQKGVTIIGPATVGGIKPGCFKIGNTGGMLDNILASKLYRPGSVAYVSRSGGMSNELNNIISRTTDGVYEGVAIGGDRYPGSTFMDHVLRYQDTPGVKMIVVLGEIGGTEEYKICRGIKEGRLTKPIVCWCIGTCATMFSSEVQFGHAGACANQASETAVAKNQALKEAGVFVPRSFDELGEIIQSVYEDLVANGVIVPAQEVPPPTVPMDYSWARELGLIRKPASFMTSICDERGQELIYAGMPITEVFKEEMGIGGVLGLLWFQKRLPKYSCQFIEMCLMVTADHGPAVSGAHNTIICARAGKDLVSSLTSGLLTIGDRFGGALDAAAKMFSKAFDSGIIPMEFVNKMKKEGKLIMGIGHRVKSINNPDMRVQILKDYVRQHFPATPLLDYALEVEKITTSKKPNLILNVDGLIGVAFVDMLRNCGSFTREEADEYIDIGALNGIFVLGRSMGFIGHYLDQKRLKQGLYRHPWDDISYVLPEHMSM
Kind of experiment: cell-free radiometric assay, […]-citrate to […]-acetyl-CoA, enzyme kinetics. The class given is biochemical.

`CC(C)(CCCCCC(O)CCCCCC(C)(C)C(=O)SCCNC(=O)CCNC(=O)[C@H](O)C(C)(C)COP(=O)(O)OP(=O)(O)OC[C@H]1O[C@@H](n2cnc3c(N)ncnc32)[C@H](O)[C@@H]1OP(=O)(O)O)C(=O)O` (stereo partly shown) [ETC-1002-CoA] came in with an inhibition constant Ki of 2000 nM.
